Where two headings read alike, the source gives them in different places.
Assays:
KRAS-G12V/RAF1 = KRAS-G12V/RAF1 (Homo sapiens (Human), UniProt P01116, G12V); experiment: KRAS/RAF1 binding inhibition assay (AlphaScreen)
Procedure, shortened: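 IC50 comes from variable-slope nonlinear fits of % inhibition (relative to DMSO) against inhibitor concentration. The AlphaScreen signal tracks the interaction of GppNHp-bound KRAS G12V with the RAF1 RBD after 60 min at 4° C with compound in 2% DMSO final.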

KRAS G12V = KRAS G12V (Homo sapiens (Human), UniProt P01116, G12V); experiment: KRAS G12V degradation in SW620 cells (Western blot, DC50); type: cell-based; details: 24 hours
Procedure, shortened: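 KRAS levels were quantified by fluorescent Western blot as percent of the DMSO control after 24 h of compound exposure at 37° C in homozygous KRAS G12V SW620 cells. A four-parameter variable-slope fit of the dose-response gave the half-maximal degradation concentration.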

SW620 cells = experiment: 3D cell growth inhibition of SW620 cells carrying endogenous KRAS G12V mutation (CellTiter-Glo 3D, GI50); type: cell-based; details: Homo sapiens, SW-620, 144 h, read-out: SW620 3D cell growth GI50
Procedure, shortened: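 […], compound exposure lasted 6 days at 37° C, added the day after plating from DMSO stocks over a concentration range. Cells: SW620, KRAS G12V, 3D culture.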

Sequence of KRAS-G12V/RAF1 (P01116-2 other isoform, or with tags, fused parts or gaps G12V): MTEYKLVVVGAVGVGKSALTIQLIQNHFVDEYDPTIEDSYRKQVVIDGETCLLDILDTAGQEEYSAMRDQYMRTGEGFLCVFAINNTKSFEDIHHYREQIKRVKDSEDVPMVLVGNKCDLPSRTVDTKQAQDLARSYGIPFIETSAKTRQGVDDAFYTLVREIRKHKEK
Sequence of KRAS G12V (P01116-2 other isoform, or with tags, fused parts or gaps G12V): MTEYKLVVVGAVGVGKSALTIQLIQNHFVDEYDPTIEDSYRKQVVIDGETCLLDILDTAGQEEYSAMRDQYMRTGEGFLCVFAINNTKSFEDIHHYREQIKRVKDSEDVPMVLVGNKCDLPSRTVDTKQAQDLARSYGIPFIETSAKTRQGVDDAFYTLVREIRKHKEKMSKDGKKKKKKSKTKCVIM

IC50 (KRAS-G12V/RAF1)	DC50 (KRAS G12V)	GI50 (SW620 cells; SW620 cells, 6 days)	Structure (SMILES)	GI50 (SW620 cells)
> 0.2 µM	> 0.1 µM	> 0.1 µM	Cc1nc(N)cc(-c2ncc3c(N4CCC[C@@](C)(O)C4)nc(OCC4(CN5CCC6(CC5)CC(CN5CCN(c7ccc8c(c7)CN([C@H]7CCC(=O)NC7=O)C8=O)CC5)C6)CC4)nc3c2F)c1C(F)(F)F [Compound 26, (S)-3-(5-(4-((7-((1-(((7-(6-amino-2-methyl-3-(trifluoromethyl)pyridin-4-yl)-8-fluoro-4-((R)-3-hydroxy-3-methylpiperidin-1-yl)pyrido[4,3-d]pyrimidin-2-yl)oxy)methyl)cyclopropyl)methyl)-7-azaspiro[3.5]nonan-2-yl)methyl)piperazin-1-yl)-1-oxoisoindolin-2-yl)piperidine-2,6-dione]	
> 0.2 µM	0.001 to 0.01 µM	0.01 to 0.1 µM	CCc1cccc2cc(O)cc(-c3ncc4c(N(C)[C@@H]5C[C@H]5F)nc(OCC5(CN6CCC7(CC6)CC(CN6CCN(c8ccc9c(c8)CN([C@H]8CCC(=O)NC8=O)C9=O)CC6)C7)CC5)nc4c3F)c12 [Compound 27, (S)-3-(5-(4-((7-((1-(((7-(8-ethyl-3-hydroxynaphthalen-1-yl)-8-fluoro-4-(((1R,2R)-2-fluorocyclopropyl)(methyl)amino)pyrido[4,3-d]pyrimidin-2-yl)oxy)methyl)cyclopropyl)methyl)-7-azaspiro[3.5]nonan-2-yl)methyl)piperazin-1-yl)-1-oxoisoindolin-2-yl)piperidine-2,6-dione]	
< 0.02 µM	0.001 to 0.01 µM	< 0.01 µM	CCc1cccc2cc(O)cc(-c3ncc4c(N5CCC[C@@](C)(O)C5)nc(OCC5(CN6CCC(N7CC8(CCN(c9ccc%10c(c9)CN([C@H]9CCC(=O)NC9=O)C%10=O)CC8)C7)CC6)CC5)nc4c3F)c12 [Compound 30, (S)-3-(5-(2-(1-((1-(((7-(8-ethyl-3-hydroxynaphthalen-1-yl)-8-fluoro-4-((R)-3-hydroxy-3-methylpiperidin-1-yl)pyrido[4,3-d]pyrimidin-2-yl)oxy)methyl)cyclopropyl)methyl)piperidin-4-yl)-2,7-diazaspiro[3.5]nonan-7-yl)-1-oxoisoindolin-2-yl)piperidine-2,6-dione]	
0.02 to 0.2 µM	0.001 to 0.01 µM	< 0.01 µM	CCc1cccc2cc(O)cc(-c3ncc4c(N5CCC[C@@](C)(O)C5)nc(OCC5(CN6CCC7(CC6)CC(N6CCN(c8ccc9c(c8)C(=O)N(C8CCC(=O)NC8=O)C9=O)CC6)C7)CC5)nc4c3F)c12 (stereo partly drawn) [Compound 31, 2-(2,6-dioxopiperidin-3-yl)-5-(4-(7-((1-(((7-(8-ethyl-3-hydroxynaphthalen-1-yl)-8-fluoro-4-((R)-3-hydroxy-3-methylpiperidin-1-yl)pyrido[4,3-d]pyrimidin-2-yl)oxy)methyl)cyclopropyl)methyl)-7-azaspiro[3.5]nonan-2-yl)piperazin-1-yl)isoindoline-1,3-dione]	
0.02 to 0.2 µM	0.001 to 0.01 µM	< 0.01 µM	CCc1cccc2cc(O)cc(-c3ncc4c(N5CCC[C@@](C)(O)C5)nc(OCC5(CN6CCC7(CC6)CC(CN6CCN(c8ccc9c(c8)C(=O)N(C8CCC(=O)NC8=O)C9=O)CC6)C7)CC5)nc4c3F)c12 (stereo partly drawn) [Compound 32, 2-(2,6-dioxopiperidin-3-yl)-5-(4-((7-((1-(((7-(8-ethyl-3-hydroxynaphthalen-1-yl)-8-fluoro-4-((R)-3-hydroxy-3-methylpiperidin-1-yl)pyrido[4,3-d]pyrimidin-2-yl)oxy)methyl)cyclopropyl)methyl)-7-azaspiro[3.5]nonan-2-yl)methyl)piperazin-1-yl)isoindoline-1,3-dione]	
< 0.02 µM	< 0.001 µM	< 0.01 µM	CCc1c(F)ccc2cc(O)cc(-c3ncc4c(N5CCC[C@@](C)(O)C5)nc(OCC5(CN6CCC(OC7CCN(C8CCN(c9ccc%10c(c9)CN(C9CCC(=O)NC9=O)C%10=O)CC8)CC7)CC6)CC5)nc4c3F)c12 (stereo partly drawn) [Compound 43, 3-(5-(4-((1-((1-(((7-(8-ethyl-7-fluoro-3-hydroxynaphthalen-1-yl)-8-fluoro-4-((R)-3-hydroxy-3-methylpiperidin-1-yl)pyrido[4,3-d]pyrimidin-2-yl)oxy)methyl)cyclopropyl)methyl)piperidin-4-yl)oxy)-[1,4′-bipiperidin]-1′-yl)-1-oxoisoindolin-2-yl)piperidine-2,6-dione]	
< 0.02 µM	0.001 to 0.01 µM	< 0.01 µM	CCc1c(F)ccc2cc(O)cc(-c3ncc4c(N5CCC[C@@](C)(O)C5)nc(OCC5(CN6CCC(N7CC8(CCN(c9cc(F)c(C%10CCC(=O)NC%10=O)c(F)c9)CC8)C7)CC6)CC5)nc4c3F)c12 (stereo partly drawn) [Compound 57, 3-(4-(2-(1-((1-(((7-(8-ethyl-7-fluoro-3-hydroxynaphthalen-1-yl)-8-fluoro-4-((R)-3-hydroxy-3-methylpiperidin-1-yl)pyrido[4,3-d]pyrimidin-2-yl)oxy)methyl)cyclopropyl)methyl)piperidin-4-yl)-2,7-diazaspiro[3.5]nonan-7-yl)-2,6-difluorophenyl)piperidine-2,6-dione]	
0.02 to 0.2 µM	0.001 to 0.01 µM	< 0.01 µM	CCc1c(F)ccc2cc(O)cc(-c3ncc4c(N5CCC[C@@](C)(O)C5)nc(OCC5(CN6CCC(C)(CN7CCN(c8ccc9c(c8)CN([C@@H]8CCC(=O)NC8=O)C9=O)CC7)CC6)CC5)nc4c3F)c12 [Compound 63, (R)-3-(5-(4-((1-((1-(((7-(8-ethyl-7-fluoro-3-hydroxynaphthalen-1-yl)-8-fluoro-4-((R)-3-hydroxy-3-methylpiperidin-1-yl)pyrido[4,3-d]pyrimidin-2-yl)oxy)methyl)cyclopropyl)methyl)-4-methylpiperidin-4-yl)methyl)piperazin-1-yl)-1-oxoisoindolin-2-yl)piperidine-2,6-dione]	
< 0.02 µM	< 0.001 µM	< 0.01 µM	CCc1c(F)ccc2cc(O)cc(-c3ncc4c(N5CCC[C@@](C)(O)C5)nc(OCC5(CN6CCC(F)(CN7CCC(N8CCN(c9ccc%10c(c9)CN([C@H]9CCC(=O)NC9=O)C%10=O)CC8)CC7)CC6)CC5)nc4c3F)c12 [Compound 72, (S)-3-(5-(4-(1-((1-((1-(((7-(8-ethyl-7-fluoro-3-hydroxynaphthalen-1-yl)-8-fluoro-4-((R)-3-hydroxy-3-methylpiperidin-1-yl)pyrido[4,3-d]pyrimidin-2-yl)oxy)methyl)cyclopropyl)methyl)-4-fluoropiperidin-4-yl)methyl)piperidin-4-yl)piperazin-1-yl)-1-oxoisoindolin-2-yl)piperidine-2,6-dione]	
> 0.2 µM	> 0.1 µM	0.01 to 0.1 µM	CCc1c(F)ccc2cc(N)cc(-c3ncc4c(N5CCC[C@@](C)(O)C5)nc(OCC5(CN6CCC7(CC6)CC(CN6CCN(c8ccc9c(c8)CN([C@H]8CCC(=O)NC8=O)C9=O)CC6)C7)CC5)nc4c3F)c12 [Compound 88, (S)-3-(5-(4-((7-((1-(((7-(3-amino-8-ethyl-7-fluoronaphthalen-1-yl)-8-fluoro-4-((R)-3-hydroxy-3-methylpiperidin-1-yl)pyrido[4,3-d]pyrimidin-2-yl)oxy)methyl)cyclopropyl)methyl)-7-azaspiro[3.5]nonan-2-yl)methyl)piperazin-1-yl)-1-oxoisoindolin-2-yl)piperidine-2,6-dione]	
> 0.2 µM	> 0.1 µM	> 0.1 µM	CCc1c(F)ccc2cc(N)cc(-c3ncc4c(N5CCC[C@@](C)(O)C5)nc(OCC5(CN6CCC(CN7CCN(c8ccc9c(c8)CN([C@H]8CCC(=O)NC8=O)C9=O)CC7)CC6)CC5)nc4c3F)c12 [Compound 89, (S)-3-(5-(4-((1-((1-(((7-(3-amino-8-ethyl-7-fluoronaphthalen-1-yl)-8-fluoro-4-((R)-3-hydroxy-3-methylpiperidin-1-yl)pyrido[4,3-d]pyrimidin-2-yl)oxy)methyl)cyclopropyl)methyl)piperidin-4-yl)methyl)piperazin-1-yl)-1-oxoisoindolin-2-yl)piperidine-2,6-dione]	

Structure (SMILES)	IC50 (KRAS-G12V/RAF1)	DC50 (KRAS G12V)	GI50 (SW620 cells; SW620 cells, 6 days)	GI50 (SW620 cells)
CCc1c(F)ccc2cc(O)cc(-c3ncc4c(N5CCC[C@@](C)(O)C5)nc(OCC5(CN6CCC7(CCN(CCc8cc(F)c(C9CCC(=O)NC9=O)c(F)c8)CC7)CC6)CC5)nc4c3F)c12 (stereo partly drawn) [Compound 56, 3-(4-(2-(9-((1-(((7-(8-ethyl-7-fluoro-3-hydroxynaphthalen-1-yl)-8-fluoro-4-((R)-3-hydroxy-3-methylpiperidin-1-yl)pyrido[4,3-d]pyrimidin-2-yl)oxy)methyl)cyclopropyl)methyl)-3,9-diazaspiro[5.5]undecan-3-yl)ethyl)-2,6-difluorophenyl) piperidine-2,6-dione]	< 0.02 µM	0.001 to 0.01 µM		< 0.01 µM
CCc1cccc2cc(O)cc(-c3ncc4c(N5CCC[C@@](C)(O)C5)nc(OCC5(CN6CCC7(CC6)CC(CN6CCN(c8ccc9c(c8)CN([C@H]8CCC(=O)NC8=O)C9=O)CC6)C7)CC5)nc4c3F)c12 [Compound 87, (S)-3-(5-(4-((7-((1-(((7-(8-ethyl-3-hydroxynaphthalen-1-yl)-8-fluoro-4-((R)-3-hydroxy-3-methylpiperidin-1-yl)pyrido[4,3-d]pyrimidin-2-yl)oxy)methyl)cyclopropyl)methyl)-7-azaspiro[3.5]nonan-2-yl)methyl)piperazin-1-yl)-1-oxoisoindolin-2-yl)piperidine-2,6-dione]	0.02 to 0.2 µM	0.001 to 0.01 µM		< 0.01 µM

— patent US20250092039A1, “GLUTARIMIDE-CONTAINING PAN-KRAS-MUTANT DEGRADER COMPOUNDS AND USES THEREOF” (Tiger Biotherapeutics Inc., priority 2022, published 2025)
